The values below come from ChEMBL document CHEMBL1201862, “PubChem BioAssay data set” (2004).

The structures appear in SMILES notation.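 Step 1: Grow cells in 96-well plates. Step 2: Expose to compound for 48 hours at 5 concentrations. Step 3: Interpolate endpoints linearly; if unreached, use highest concentration. Here, GI50 denotes the concentration required for 50% inhibition of growth.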 Activity calls are given as the source filed them. Cut-off read from the data, not from the text of the source: active = GI50 up to about 1.1 µM and inactive = higher.

Some test systems named below: DLD-1; DMS-114; DMS-273; HOP-18; KM-20L2; LXFL 529; M19-MEL; XF498; RXF 631.
What all share (experiment): NCI-60 cell line screen, 48 h

For `Cc1noc(C)c1CCCOC1COc2ccccc2OCCOCCOc2ccccc2OC1`, the GI50 in the assay on DLD-1, in the assay with DMS-114, with DMS-273, in the assay with HOP-18, in the assay on KM-20L2 and in the assay on LXFL 529 was > 100 µM (inactive) in each case. The GI50 in the assay with M19-MEL and with XF498 was > 100 µM (inactive) in each case.
Consider `O=C1c2ccc(O)cc2C(=O)c2ccc(O)cc21`, for which the GI50 in the assay on DLD-1 was 38.6 µM (inactive); in the assay on DMS-114, 95.9 µM (inactive); in the assay on DMS-273, 49.2 µM (inactive); with LXFL 529, 87.3 µM (inactive); in the assay with M19-MEL, > 100 µM (inactive); in the assay on RXF 631 it was 75 µM (inactive). Also, the GI50 with XF498 is > 100 µM (inactive).
For `CCOC(=O)CC1=N/C(=N/c2cc(Cl)ccc2Cl)SC1`, the GI50 in the assay with DLD-1 was 91.8 µM (inactive); in the assay on DMS-114, 38.5 µM (inactive); with DMS-273 it was > 100 µM (inactive); with HOP-18 it was > 100 µM (inactive); with KM-20L2, > 100 µM (inactive); in the assay with LXFL 529 it was > 100 µM (inactive). The GI50 in the assay with M19-MEL and with XF498 was > 100 µM (inactive) each time.
Regarding `O=C(Nc1ccc(Cl)cc1C(=O)O)c1ccc([N+](=O)[O-])cc1`, the GI50 is 7.06 µM (inactive) in the assay with DLD-1; 9.08 µM (inactive) in the assay with DMS-114; 27.7 µM (inactive) in the assay with DMS-273; 21.8 µM (inactive) in the assay with KM-20L2; 15.5 µM (inactive) in the assay on LXFL 529; 21.4 µM (inactive) in the assay on M19-MEL. For the same compound, the GI50 with RXF 631 is 30.1 µM (inactive); in the assay on XF498, 24.9 µM (inactive).
`Cc1cc2c(C)nn(Cc3ccccc3)c2c(C(=O)O)c1C`: the GI50 in the assay on DMS-273, in the assay on HOP-18, in the assay with KM-20L2, in the assay on LXFL 529, with M19-MEL and in the assay on RXF 631 was > 100 µM (inactive) throughout. For the same compound, the GI50 in the assay with XF498 is > 100 µM (inactive).
Take `O=C(NCCCN1CCN(CCCNC(=O)c2cccc3ccccc23)CC1)c1cccc2ccccc12`: the GI50 was 59.8 µM (inactive) in the assay with DMS-114; > 100 µM (inactive) in the assay on HOP-18; 34 µM (inactive) in the assay with KM-20L2; 89.7 µM (inactive) in the assay with LXFL 529; > 100 µM (inactive) in the assay on M19-MEL; 75.7 µM (inactive) in the assay with RXF 631. The GI50 in the assay on XF498 is 21.9 µM (inactive).
Turning to `Nc1c(-c2nc3ccccc3s2)[n+]([O-])c2ccccc2[n+]1[O-]`, the GI50 in the assay on DLD-1 is 33 µM (inactive); in the assay on DMS-114, 34.2 µM (inactive); in the assay on HOP-18 it was 23.5 µM (inactive); in the assay on KM-20L2 it was 48.2 µM (inactive); in the assay with LXFL 529, 28.4 µM (inactive); in the assay with M19-MEL, 28 µM (inactive).
On to `COc1ccc(C(=O)N2c3ccccc3N(C)n3cccc3C2CC(=O)O)cc1` (stereo unspecified), for which the GI50 in the assay with DLD-1, with DMS-114, in the assay with DMS-273, in the assay on KM-20L2, in the assay with LXFL 529 and with M19-MEL was > 100 µM (inactive) throughout.
Take `COc1ccc(-c2nnc(-c3c(C)n(C)n(-c4ccccc4)c3=O)o2)cc1`: the GI50 in the assay on DLD-1, with DMS-114, in the assay on DMS-273, with HOP-18, with KM-20L2 and in the assay on LXFL 529 was > 100 µM (inactive) in each case. The GI50 with M19-MEL and with XF498 was > 100 µM (inactive) each time.
For the compound `Cc1ccc(NC(=O)C(=O)C2C(=O)NC(=O)NC2=O)cc1C`, the GI50 in the assay on DLD-1, with DMS-273, with HOP-18, in the assay on KM-20L2, with LXFL 529 and with M19-MEL was > 100 µM (inactive) in each case. Also, in the assay on XF498, the GI50 was > 100 µM (inactive).
Regarding `C/C(=N\NC(=N)N)C(CN(C)C)C(c1ccccc1)c1c(O)c2ccccc2oc1=O` (stereo unspecified), the GI50 in the assay with DLD-1, in the assay with DMS-114, with DMS-273, with HOP-18, in the assay on KM-20L2 and with LXFL 529 was > 100 µM (inactive) each time. Also, the GI50 in the assay on M19-MEL and with XF498 was > 100 µM (inactive) throughout.
`C[C@H]1CCC2C(CN3CCCCC3)C(=O)OC2[C@]2(C)C(=O)CC(N3CCCCC3)C12O` (stereo partly specified): the GI50 is 3.34 µM (inactive) in the assay on DLD-1; 3.2 µM (inactive) in the assay on DMS-114; 3.57 µM (inactive) with DMS-273; 29 µM (inactive) with HOP-18; 7.91 µM (inactive) in the assay on KM-20L2; 5.3 µM (inactive) in the assay on M19-MEL. In addition, the GI50 in the assay on RXF 631 was 1.28 µM (inactive).
As for `CCC1CCc2c(OC)ccc(OCC(=O)O)c2C1=O` (stereo unspecified), the GI50 in the assay on DLD-1, with DMS-114, in the assay on DMS-273, with LXFL 529, with M19-MEL and in the assay with XF498 was > 100 µM (inactive) in each case.
In the case of `Cc1cc2c(c(N)c1C)C(=O)c1ccccc1C2=O`, the GI50 with DLD-1 is 62.7 µM (inactive); in the assay with DMS-114 it was 32.1 µM (inactive); with DMS-273, 24.4 µM (inactive); in the assay with HOP-18, 1.56 µM (inactive); in the assay with KM-20L2, 25 µM (inactive); with LXFL 529 it was 28.8 µM (inactive). For the same compound, the GI50 in the assay with M19-MEL was 65.5 µM (inactive).
For `CCOC(=N)CC(=O)Nc1ccc(Cl)cc1`, the GI50 was > 100 µM (inactive) in the assay on DLD-1; > 100 µM (inactive) in the assay with DMS-273; 1.73 µM (inactive) in the assay with HOP-18; > 100 µM (inactive) in the assay on KM-20L2; > 100 µM (inactive) in the assay on LXFL 529; > 100 µM (inactive) in the assay with M19-MEL. The GI50 with XF498 is > 100 µM (inactive).
Regarding `COC(=O)c1onc(-c2c(OC)cc(OC)cc2OC)c1C(=O)OC`, the GI50 in the assay on DLD-1, in the assay on DMS-114, with DMS-273, in the assay with HOP-18, with KM-20L2 and in the assay on LXFL 529 was > 100 µM (inactive) each time. The GI50 in the assay on M19-MEL and in the assay on XF498 was > 100 µM (inactive) in each case.
As to `CCc1ccc(/N=C\c2cc(OC)c(OC)c(OC)c2)cc1`, the GI50 in the assay on DLD-1 is 77.8 µM (inactive); in the assay with DMS-114 it was 40.4 µM (inactive); in the assay on DMS-273, > 100 µM (inactive); in the assay on HOP-18 it was > 100 µM (inactive); in the assay with KM-20L2, > 100 µM (inactive); in the assay on LXFL 529, 51.9 µM (inactive). Moreover, the GI50 with M19-MEL and in the assay on XF498 was > 100 µM (inactive) throughout.
In the case of `O=C(O)CCC1CCc2cccc3occ1c23` (stereo unspecified), the GI50 with DLD-1, in the assay on DMS-114, in the assay with DMS-273, with KM-20L2, with LXFL 529 and in the assay on M19-MEL was > 100 µM (inactive) in each case. In the assay with RXF 631, the GI50 is > 100 µM (inactive).
For `CC(=O)OC1[C@H]2c3cc4c(cc3CN3CCC(=C[C@@H]1O)C23)OCO4` (stereo partly specified), the GI50 with DLD-1 is > 100 µM (inactive); in the assay with DMS-273 it was > 100 µM (inactive); in the assay on KM-20L2 it was 77.8 µM (inactive); in the assay on LXFL 529, 48.6 µM (inactive); with M19-MEL, > 100 µM (inactive).
For the compound `CC(=O)Nc1ccc(/C=c2\sc3nnc(-c4cccnc4)n3c2=O)cc1`, the GI50 with DLD-1 was 17.3 µM (inactive); in the assay with DMS-114 it was 17.9 µM (inactive); with DMS-273, 25.1 µM (inactive); with HOP-18, 19.1 µM (inactive); in the assay with KM-20L2, 17.5 µM (inactive); with LXFL 529, 15.9 µM (inactive). The GI50 with M19-MEL and in the assay with RXF 631 was 18.1 µM (inactive) each time.
As for `CCCC(=O)OC[n+]1ccc2c(C)c3[nH]c4ccccc4c3c(C)c2c1`, the GI50 in the assay with DMS-114 was 0.641 µM (active); in the assay on DMS-273, 0.101 µM (active); in the assay with HOP-18, 1.09 µM (active); in the assay on KM-20L2, 0.478 µM (active); with LXFL 529 it was 0.57 µM (active); in the assay with M19-MEL, > 100 µM (inactive). In addition, the GI50 with RXF 631 is 0.378 µM (active).
As to `O=C1C2c3[nH]c4ccccc4c3[C@@H]3CCCCCCCCCCC3C2C(=O)N1c1ccccc1` (stereo partly specified), the GI50 in the assay with DLD-1 was 24.5 µM (inactive); in the assay on DMS-114, 16.9 µM (inactive); with DMS-273 it was 27.3 µM (inactive); in the assay with HOP-18, 41.5 µM (inactive); in the assay with LXFL 529 it was 13.5 µM (inactive); with M19-MEL it was 22.2 µM (inactive). Also, the GI50 in the assay on RXF 631 is 12.6 µM (inactive).
As to `c1ccc(C2C3=C(Nc4ncnn42)c2ccccc2C3)cc1` (stereo unspecified), the GI50 was 14.1 µM (inactive) with DLD-1; 7.1 µM (inactive) in the assay with DMS-114; 12.1 µM (inactive) in the assay with DMS-273; 56.1 µM (inactive) with HOP-18; 7.89 µM (inactive) in the assay with KM-20L2; 9.75 µM (inactive) in the assay on M19-MEL. Moreover, the figures for the GI50 in the assay with RXF 631 and in the assay with XF498 were > 100 µM (inactive) and 15.4 µM (inactive), respectively.
Regarding `O=C1CC23CC(=O)CC2(C1)c1ccccc1C3=O` (stereo unspecified), the GI50 in the assay with DLD-1, in the assay on DMS-114, with DMS-273, in the assay with HOP-18, in the assay with KM-20L2 and with LXFL 529 was > 100 µM (inactive) each time. In addition, the GI50 in the assay with M19-MEL and with XF498 was > 100 µM (inactive) in each case.
For the compound `COc1ccc(/C=C/C(=O)c2c(-c3ccccc3)nn(C)c(=O)c2N2CCCCC2)cc1`, the GI50 with DLD-1 is 16.1 µM (inactive); in the assay with DMS-114, 14.6 µM (inactive); in the assay with DMS-273, 15.9 µM (inactive); with HOP-18, 20.1 µM (inactive); with KM-20L2, 14.3 µM (inactive); with LXFL 529, 16.6 µM (inactive). Further, the GI50 is 25.3 µM (inactive) with M19-MEL and 23.5 µM (inactive) in the assay with RXF 631.
